Where a name gives a salt, the structure may show the parent alone. Read-outs that look alike come from different tables or passages of the source.
System: ovarian cancer cells with (OVCAR8, OVCAR4) or without (OVSAHO, CAOV3) MYC-HSF1 amplification
Assay: Epigenetic inhibitor drug screen, cell viability (Cell Titer Blue)
Format: cell-based
[1] = 10 uM, 48 hrs, average relative cell viability (vs 1% DMSO) of non-amplified cells (OVSAHO, CAOV3) minus that of MYC-HSF1 amplified cells (OVCAR8, OVCAR4), positive = greater response in amplified cells, 10 µM
[2] = 10 uM, 48 hrs, average relative cell viability (vs 1% DMSO) of non-amplified cells (OVSAHO, CAOV3) minus that of MYC-HSF1 amplified cells (OVCAR8, OVCAR4), positive = greater response in amplified cells

Molecule	Non Amp - AMP (POC) 10 uM [2] [POC]	further results
C[C@@H]1CCN(C(=O)CC#N)C[C@@H]1N(C)c1ncnc2[nH]ccc12 [Tofacitinib (CP-690550, Tasocitinib), Tofacitinib]		Non Amp - AMP (POC) 10 uM [1]: −2.781 POC
CC(/C=C/C(=O)NO)=C\[C@@H](C)C(=O)c1ccc(N(C)C)cc1 [Trichostatin A]		Non Amp - AMP (POC) 10 uM [1]: 47.34 POC; Non Amp - AMP (POC) 10 uM (10 uM, 48 hrs, average relative cell viability (vs 1% DMSO) of non-amplified cells (OVSAHO, CAOV3) minus that of MYC-HSF1 amplified cells (OVCAR8, OVCAR4), positive = greater response in amplified cells, listed as Trichostatin A (TSA), 10 µM): 28.28 POC
O=C(CCCCCCC(=O)Nc1ccc([C@H]2O[C@@H](CSc3nc(-c4ccccc4)c(-c4ccccc4)o3)C[C@@H](c3ccc(CO)cc3)O2)cc1)NO [Tubacin]	−15.59	
CN1CCc2c(c3ccccc3n2Cc2ccc(C(=O)NO)cc2)C1.Cl [Tubastatin A HCl]	19.35	
CN1CCc2c(c3ccccc3n2Cc2ccc(C(=O)NO)cc2)C1 [Tubastatin A]	15.75	
CCCCNNC(=O)c1ccc(Br)cc1 [UF010]		Non Amp - AMP (POC) 10 uM [1]: 54.18 POC; Non Amp - AMP (POC) 10 uM (10 uM, 48 hrs, average relative cell viability (vs 1% DMSO) of non-amplified cells (OVSAHO, CAOV3) minus that of MYC-HSF1 amplified cells (OVCAR8, OVCAR4), positive = greater response in amplified cells, listed as UF 010, 10 µM): 21.86 POC
Cc1noc(C)c1-c1ccc(-c2nc3cnccn3c2NC(C)(C)C)cc1 [UMB-32]	−3.692	
COc1cc2c(NC3CCN(C)CC3)nc(N3CCCN(C)CC3)nc2cc1OCCCN(C)C [UNC0224]		Non Amp - AMP (POC) 10 uM [1]: 7.132 POC; Non Amp - AMP (POC) 10 uM (10 uM, 48 hrs, average relative cell viability (vs 1% DMSO) of non-amplified cells (OVSAHO, CAOV3) minus that of MYC-HSF1 amplified cells (OVCAR8, OVCAR4), positive = greater response in amplified cells, listed as UNC 0224, 10 µM): −1.296 POC
COc1cc2c(NC3CCN(C)CC3)nc(N3CCCN(C)CC3)nc2cc1OCCOCCN(C)C [UNC0321 (trifluoroacetate salt)]	0.4275	
COc1cc2nc(N3CCCC3)nc(NCCCCCN3CCCC3)c2cc1OC [UNC0379]	21.92	
COc1cc2c(NC3CCN(C(C)C)CC3)nc(C3CCCCC3)nc2cc1OCCCN1CCCC1 [UNC0638]	−12.13	
COc1cc2c(NC3CCN(CC4CCCCC4)CC3)nc(N3CCCN(C(C)C)CC3)nc2cc1OCCCN1CCCCC1 [UNC 0631]	34.73	
COc1cc2c(NC3CCN(C(C)C)CC3)nc(N3CCC(F)(F)CC3)nc2cc1OCCCN1CCCC1 [UNC 0642]		Non Amp - AMP (POC) 10 uM (10 µM): 6.253 POC; Non Amp - AMP (POC) 10 uM (listed as UNC0642, 10 µM): −5.587 POC
COc1cc2c(NC3CCN(C4CCCCC4)CC3)nc(N3CCCN(C(C)C)CC3)nc2cc1OCCCN1CCCCC1 [UNC 0646]	45.25	
O=C(COc1cccc2c(=O)[nH]ccc12)c1ccccc1 [UPF 1069]	−6.052	
Cc1cc(Nc2cc(N3CCN(C)CC3)nc(Sc3ccc(NC(=O)C4CC4)cc3)n2)[nH]n1 [VX-680 (MK-0457, Tozasertib), Tozasertib]	−20.25	
CCCC(CCC)C(=O)[O-].[Na+] [Valproic acid sodium salt]	−19.36	
CCCC(CCC)C(=O)O [Valproic acid]		Non Amp - AMP (POC) 10 uM [1]: −3.268 POC
C[C@]1(c2nc3c(C(N)=O)cccc3[nH]2)CCCN1 [Veliparib dihydrochloride]		Non Amp - AMP (POC) 10 uM (10 uM, 48 hrs, average relative cell viability (vs 1% DMSO) of non-amplified cells (OVSAHO, CAOV3) minus that of MYC-HSF1 amplified cells (OVCAR8, OVCAR4), positive = greater response in amplified cells, dihydrochloride, 10 µM): −2.841 POC
O=C(CCCCCCC(=O)Nc1ccccc1)NO [Vorinostat (SAHA, MK0683), Vorinostat]		Non Amp - AMP (POC) 10 uM [1]: 37.32 POC; Non Amp - AMP (POC) 10 uM (10 uM, 48 hrs, average relative cell viability (vs 1% DMSO) of non-amplified cells (OVSAHO, CAOV3) minus that of MYC-HSF1 amplified cells (OVCAR8, OVCAR4), positive = greater response in amplified cells, listed as SAHA, 10 µM): 44.79 POC
COC(=O)c1ccc(N2CCN(C)CC2)c(NC(=O)c2cccc(OC)c2)c1 [WDR5 0103]	1.921	

Molecule	Non Amp - AMP (POC) 10 uM [2] [POC]	further results
COc1cc2ncnc(Nc3ccc(O)c(Br)c3)c2cc1OC [WHI-P154]	−1.78	
COc1ccc(-n2c(SCCCN3C(=O)c4cccc5cccc(c45)C3=O)nnc2-c2ccncc2)cc1 [WIKI4]	10.07	
C[C@H](NC(=O)/C(C#N)=C/c1cccc(Br)n1)c1ccccc1 [WP1066]	3.079	
CCC(=O)Nc1cccc(Oc2nc(Nc3ccc(N4CCN(C)CC4)cc3OC)ncc2Cl)c1 [WZ4003]	−24.51	
Oc1nc(-c2ccc(C(F)(F)F)cc2)nc2c1CSCC2 [XAV-939]	−6.034	
O=C(Nc1ccc(-c2ccnc(Nc3ccc(N4CCOCC4)cc3)n2)cc1)C1CCCN1 (stereo not shown) [XL019]	−14.18	
CC(C)c1cc(CNc2nc(Nc3cc(C4CC4)[nH]n3)cc(N3CCN(C)CC3)n2)on1 [XL228]	17.3	
CC(C)N(CCC(=O)c1ccc2ccccc2c1)Cc1ccccc1 [ZM 39923 HCl]	−4.611	
COc1cc2c(Nc3ccc(NC(=O)c4ccccc4)cc3)ncnc2cc1OCCCN1CCOCC1 [ZM 447439]	0.5089	
C=CC(=O)c1ccc2ccccc2c1 [ZM 449829]	4.711	
O=C([O-])CCC(O)C(=O)[O-].[Na+].[Na+] (stereo not shown) [a-hydroxyglutaric Acid (sodium salt), a-hydroxyglutaric Acid]	3.785	
O=P(O)(O)OC(CO)CO [β-Glycerophosphate (sodium salt hydrate), β-Glycerophosphate]	2.069	
(−)-Epigallocatechin gallate [(−)-Epigallocatechin gallate (EGCG)]		Non Amp - AMP (POC) 10 uM: 4.98 POC
AZD1152	−6.485	
CPI-455	−8.682	
Ginkgolide C		Non Amp - AMP (POC) 10 uM: −1.319 POC
Inauhzin	−0.3441	
Oxamflatin		Non Amp - AMP (POC) 10 uM: 24.33 POC
SNS-314 Mesylate	1.355	
Sodium Phenylbutyrate		Non Amp - AMP (POC) 10 uM: −19.07 POC

Reference: patent US20250011881A1, “MYC-HSF1 DUAL AMPLIFICATION AS A BIOMARKER FOR CANCER TREATMENT” (The Trustees of Indiana University, priority 2023, published 2025)
